How the values were obtained:
RON tyrosine kinase = molecular target: T1, RON tyrosine kinase (Homo sapiens, UniProt Q04912); test: Enzyme inhibitory activity against RON tyrosine kinase (TR-FRET); assay type: biochemical; conditions: RON (Carna Bioscience)
T1 construct: purchased Carna Bioscience
Method: Experimental Example 1: Measurement of Enzyme Inhibitory Activity Against RON Tyrosine Kinase
To measure enzyme inhibitory activity of the example compounds against RON, IC50 values of the compounds were measured using fluorescence resonance energy transfer (FRET).
Specifically, first, RON (Carna Bioscience) was diluted in a kinase assay buffer (50 mM HEPES pH 7.5, 1 mM EGTA, 10 mM MgCl2, 2 mM DTT, and 0.01% Tween-20) to be at a concentration (0.4 nM) that is twice the final reaction concentration. The dilute was added to a 384-well-plate at 5 μl per well. Each of the example compounds was prepared at a concentration of 1 mM in 100% DMSO and diluted 8 times in a stepwise manner through 10-fold dilution. Each compound was diluted in a kinase assay buffer to be at a concentration that is 4 times the final reaction concentration. The dilute was added to a 384-well-plate at 2.5 μl per well, and incubation was performed at room temperature for 15 minutes.
Thereafter, an ATP solution (Sigma Aldrich) prepared at a concentration of 0.25 M was diluted in a kinase assay buffer to be at a concentration (60 μM) that is 4 times the final reaction concentration. Dilution of a tyrosine peptide substrate (Perkin-Elmer) was performed therein to be at a concentration (400 nM) that is 4 times the final reaction concentration. The dilute was added to a 384-well-plate at 2.5 µl per well. Reaction was allowed to proceed for 60 minutes by incubating the 384-well-plate at room temperature. Thereafter, EDTA (Sigma Aldrich) was diluted in a TR-FRET detection buffer (Perkin-Elmer) to be at a concentration (20 mM) that is twice the final reaction concentration. Dilution of a Europium-containing phosphotyrosine antibody (Perkin-Elmer) was performed in the diluted EDTA solution to be at a concentration (4 nM) that is twice the final reaction concentration, so that a stop solution for RON reaction was prepared.
The stop solution was added to the 384-well-plate at 10 μl per well to quench the reaction, and incubation was performed at room temperature for 60 minutes. Then, the 384-well-plate was read on a Victor X5 (Perkin-Elmer) plate reader. Here, the excitation wavelength was 340 nm, and the emission wavelengths were 620 nm and 665 nm. An IC50 value of the compound was derived using GraphPad Prism 5 program, in which the IC50 was derived by expressing emission energy at the wavelength of 665 nm as a function of the compound concentration.

[1] = system: cancer cell line KM12C, in which RON is activated; test: Cell growth inhibitory ability in RON-activated cancer cell line (MTS); assay type: cell-based; conditions: Homo sapiens, 48 hours, absorbance 490 nm
Method: Experimental Example 2: Identification of Cell Growth Inhibitory Ability of Example Compounds in RON-Activated Cancer Cell Line
The cancer cell line KM12C (80015, KCLB, MEM+1K° FBS), in which RON is activated, was treated with each of the example compounds at a concentration of 10 μM, and then reaction was allowed to proceed for 48 hours. 24 hours after completion of the reaction, 20 μl of MTS solution (CellTiter 96 Aqueous One Solution Cell Proliferation Assay, product number: G3581, Promega) was added to each well, and then incubation was performed at a temperature of 37° C. in 50 CO2 incubator for 4 hours. Then, an IC50 value of the compound was derived by measuring its absorbance value at a wavelength of 490 nm using a Victor X5 plate reader. Here, as a positive control, N-(4-(2-amino-3-chloropyridin-4-yloxy)-3-fluorophenyl)-4-ethoxy-1-(4-fluorophenyl)-2-oxo-1,2-dihydropyridine-3-carboxamide, which is the compound of Example 1 in WO 2008/058229 A1, was used.

[2] = system: cancer cell line KM12C, in which RON is activated; test: Cell-killing efficacy in RON-activated cancer cell line (trypan blue); assay type: cell-based; conditions: Homo sapiens, 48 hours, trypan blue, n=2, read-out: Cell death (%) Cancer cell line KM12C
Method: Experimental Example 3: Measurement of Cell-Killing Efficacy of Example Compounds in RON-Activated Cancer Cell Line
The cancer cell line KM12C (80015, KCLB, MEM+10% FBS), in which RON is activated, was dispensed into each 60 mm^2 dish at 1×10^5 cells. After 24 hours, the dish was treated with each of the example compounds at a concentration of 1 μM or 5 μM while performing medium exchange, and then reaction was allowed to proceed for 48 hours. After 48 hours, centrifugation was performed for 4 minutes at 1,500 rpm to collect cells and cell fluid. Thereafter, living cells and dead cells were quantified (n=2) using a trypan blue solution (15250-061, Gibco), and statistical analysis was performed using Excel-T-test. Here, as a negative control, only a solvent (0.100 DMSO) was used; and as a positive control, N-(4-(2-amino-3-chloropyridin-4-yloxy)-3-fluorophenyl)-4-ethoxy-1-(4-fluorophenyl)-2-oxo-1,2-dihydropyridine-3-carboxamide, which is the compound of Example 1 in WO 2008/058229 A1, was used.

T1 sequence (Q04912 25-1400): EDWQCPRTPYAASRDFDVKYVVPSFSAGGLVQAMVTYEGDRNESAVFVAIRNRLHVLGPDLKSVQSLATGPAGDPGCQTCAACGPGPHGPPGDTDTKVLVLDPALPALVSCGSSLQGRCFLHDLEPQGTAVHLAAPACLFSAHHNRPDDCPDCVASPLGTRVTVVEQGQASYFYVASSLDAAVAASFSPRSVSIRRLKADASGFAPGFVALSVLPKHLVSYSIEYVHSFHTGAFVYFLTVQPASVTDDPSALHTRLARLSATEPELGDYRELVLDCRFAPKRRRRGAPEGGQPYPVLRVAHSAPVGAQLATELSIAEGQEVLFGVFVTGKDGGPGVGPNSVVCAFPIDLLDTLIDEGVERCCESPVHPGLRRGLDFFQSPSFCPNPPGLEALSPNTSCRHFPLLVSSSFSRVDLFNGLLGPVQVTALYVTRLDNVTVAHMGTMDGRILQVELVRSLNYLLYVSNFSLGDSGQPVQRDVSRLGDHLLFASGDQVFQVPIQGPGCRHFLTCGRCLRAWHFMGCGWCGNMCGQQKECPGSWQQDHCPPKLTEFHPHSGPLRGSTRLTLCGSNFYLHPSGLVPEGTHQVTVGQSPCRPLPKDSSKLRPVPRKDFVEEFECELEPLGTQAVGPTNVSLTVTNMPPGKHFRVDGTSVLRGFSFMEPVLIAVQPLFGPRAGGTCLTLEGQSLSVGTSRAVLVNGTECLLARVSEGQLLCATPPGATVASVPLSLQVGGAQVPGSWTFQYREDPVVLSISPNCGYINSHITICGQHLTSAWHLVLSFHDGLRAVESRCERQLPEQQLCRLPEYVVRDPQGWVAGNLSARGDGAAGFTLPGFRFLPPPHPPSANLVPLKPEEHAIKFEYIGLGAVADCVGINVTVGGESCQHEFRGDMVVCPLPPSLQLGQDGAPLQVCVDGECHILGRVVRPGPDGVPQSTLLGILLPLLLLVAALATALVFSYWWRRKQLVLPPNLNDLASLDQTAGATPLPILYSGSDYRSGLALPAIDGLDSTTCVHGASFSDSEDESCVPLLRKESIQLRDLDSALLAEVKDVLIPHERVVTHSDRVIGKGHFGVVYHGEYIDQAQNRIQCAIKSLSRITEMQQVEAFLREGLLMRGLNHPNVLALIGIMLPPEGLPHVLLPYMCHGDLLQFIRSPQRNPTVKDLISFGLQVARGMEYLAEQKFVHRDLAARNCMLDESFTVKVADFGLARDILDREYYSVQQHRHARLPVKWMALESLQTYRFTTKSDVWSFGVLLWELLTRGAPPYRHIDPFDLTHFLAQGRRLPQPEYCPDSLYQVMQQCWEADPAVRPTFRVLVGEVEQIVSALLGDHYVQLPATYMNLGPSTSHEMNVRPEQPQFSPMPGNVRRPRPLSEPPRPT

| SMILES | IC50 (RON tyrosine kinase) [nM] | IC50 [1] [nM] | cytotoxicity at 1 µM [2] [%] | cytotoxicity at 5 µM [2] [%] |
| --- | --- | --- | --- | --- |
| O=C(Nc1ccc(Oc2ccnc3cc(OCCN4CCOCC4)c(F)cc23)c(F)c1)c1c2c(cn(-c3ccc(F)cc3)c1=O)CCO2 [Example 167, N-(3-Fluoro-4-((6-fluoro-7-(2-morpholinoethoxy)quinolin-4-yl)oxy)phenyl)-5-(4-fluorophenyl)-6-oxo-2,3,5,6-tetrahydrofuro[3,2-c]pyridine-7-carboxamide] | 0.83 | 6 | – | – |
| COc1cc2nccc(Oc3ccc(NC(=O)c4c5c(cn(-c6ccc(F)cc6)c4=O)CCO5)cc3F)c2cc1N [Example 179, N-(4-((6-Amino-7-methoxyquinolin-4-yl)oxy)-3-fluorophenyl)-5-(4-fluorophenyl)-6-oxo-2,3,5,6-tetrahydrofuro[3,2-c]pyridine-7-carboxamide] | 0.47 | 3 | – | – |
| Cn1cnc(-c2cc3nccc(Oc4ccc(NC(=O)c5c6c(cn(-c7ccccc7)c5=O)CCO6)cc4F)c3s2)c1 [Example 9, N-(3-Fluoro-4-((2-(1-methyl-1H-imidazol-4-yl)thieno[3,2-b]pyridin-7-yl)oxy)phenyl)-6-oxo-5-phenyl-2,3,5,6-tetrahydrofuro[3,2-c]pyridine-7-carboxamide] | 0.5 | 0.6 | – | – |
| COc1cc2c(Oc3ccc(NC(=O)c4c5c(cn(-c6ccc(F)cc6)c4=O)CCO5)cc3F)ccnc2cc1OCCCN1CC(C#N)C1 [Example 88, N-(4-((7-(3-(3-Cyanoazetidin-1-yl)propoxy)-6-methoxyquinolin-4-yl)oxy)-3-fluorophenyl)-5-(4-fluorophenyl)-6-oxo-2,3,5,6-tetrahydrofuro[3,2-c]pyridine-7-carboxamide] | – | 3 | 18.8 | 24.7 |
| O=C(Nc1ccc(Oc2ccnc3cc(-c4ccc(CN5CCC(F)(F)CC5)cn4)sc23)c(F)c1)c1c2c(cn(-c3ccc(F)cc3)c1=O)CCO2 [Example 35, N-(4-((2-(5-((4,4-Difluoropiperidin-1-yl)methyl)pyridin-2-yl)thieno[3,2-b]pyridine-7-yl)oxy)-3-fluorophenyl)-5-(4-fluorophenyl)-6-oxo-2,3,5,6-tetrahydrofuro[3,2-c]pyridine-7-carboxamide] | – | 4 | 19.6 | 28.1 |
| COC1CCN(Cc2ccc(-c3cc4nccc(Oc5ccc(NC(=O)c6c7c(cn(-c8ccc(F)cc8)c6=O)CCO7)cc5F)c4s3)nc2)C1 (stereo not drawn) [Example 25, N-(3-Fluoro-4-((2-(5-((3-methoxypyrrolidin-1-yl)methyl)pyridin-2-yl)thieno[3,2-b]pyridin-7-yl)oxy)phenyl)-5-(4-fluorophenyl)-6-oxo-2,3,5,6-tetrahydrofuro[3,2-c]pyridine-7-carboxamide] | – | 1 | 17.5 | 21 |
| COc1cc2c(Oc3ccc(NC(=O)c4c5c(cn(-c6ccc(F)cc6)c4=O)CCO5)cc3F)ccnc2cc1OCCCN1CCC(C)(O)C1 (stereo not drawn) [Example 91, N-(3-Fluoro-4-((7-(3-(3-hydroxy-3-methylpyrrolidin-1-yl)propoxy)-6-methoxyquinoline-4-yl)oxy)phenyl)-5-(4-fluorophenyl)-6-oxo-2,3,5,6-tetrahydrofuro[3,2-c]pyridine-7-carboxamide] | – | 50 | 12.7 | 14.3 |
| COc1cc2c(Oc3ccc(NC(=O)c4c5c(cn(-c6ccc(F)cc6)c4=O)CCO5)cc3F)ccnc2cc1OCCCN1CCC(F)(F)C1 [Example 95, N-(4-((7-(3-(3,3-Difluoropyrrolidin-1-yl)propoxy)-6-methoxyquinolin-4-yl)oxy)-3-fluorophenyl)-5-(4-fluorophenyl)-6-oxo-2,3,5,6-tetrahydrofuro[3,2-c]pyridine-7-carboxamide] | – | 5 | 19.6 | 25.6 |
| COC1CCCN(Cc2ccc(-c3cc4nccc(Oc5ccc(NC(=O)c6c7c(cn(-c8ccc(F)cc8)c6=O)CCO7)cc5F)c4s3)nc2)C1 (stereo not drawn) [Example 32, N-(3-Fluoro-4-((2-(5-((3-methoxypiperidin-1-yl)methyl)pyridin-2-yl)thieno[3,2-b]pyridin-7-yl)oxy)phenyl)-5-(4-fluorophenyl)-6-oxo-2,3,5,6-tetrahydrofuro[3,2-c]pyridine-7-carboxamide] | – | 6 | 13.5 | 20.4 |
| COC1CN(Cc2ccc(-c3cc4nccc(Oc5ccc(NC(=O)c6c7c(cn(-c8ccc(F)cc8)c6=O)CCO7)cc5F)c4s3)nc2)C1 [Example 14, N-(3-Fluoro-4-((2-(5-((3-methoxyazetidin-1-yl)methyl)pyridin-2-yl)thieno[3,2-b]pyridin-7-yl)oxy)phenyl)-5-(4-fluorophenyl)-6-oxo-2,3,5,6-tetrahydrofuro[3,2-c]pyridine-7-carboxamide] | – | 2 | 13.6 | 21.5 |
| O=C(Nc1ccc(Oc2ccnc3cc(-c4ccc(CN5CCC(F)CC5)cn4)sc23)c(F)c1)c1c2c(cn(-c3ccc(F)cc3)c1=O)CCO2 [Example 34, N-(3-Fluoro-4-((2-(5-((4-fluoropiperidin-1-yl)methyl)pyridin-2-yl)thieno[3,2-b]pyridin-7-yl)oxy)phenyl)-5-(4-fluorophenyl)-6-oxo-2,3,5,6-tetrahydrofuro[3,2-c]pyridine-7-carboxamide] | – | 3 | 13.7 | 15.9 |
| O=C(Nc1ccc(Oc2ccnc3cc(-c4ccc(CN5CC(F)C5)cn4)sc23)c(F)c1)c1c2c(cn(-c3ccc(F)cc3)c1=O)CCO2 [Example 17, N-(3-Fluoro-4-((2-(5-((3-fluoroazetidin-1-yl)methyl)pyridin-2-yl)thieno[3,2-b]pyridin-7-yl)oxy)phenyl)-5-(4-fluorophenyl)-6-oxo-2,3,5,6-tetrahydrofuro[3,2-c]pyridine-7-carboxamide] | – | 1 | 14 | 27.7 |
| COc1cc2c(Oc3ccc(NC(=O)c4c5c(cn(-c6ccc(F)cc6)c4=O)CCO5)cc3F)ccnc2cc1OCCCN1CCS(=O)(=O)CC1 [Example 102, N-(4-((7-(3-(1,1-Dioxidothiomorpholino)propoxy)-6-methoxyquinolin-4-yl)oxy)-3-fluorophenyl)-5-(4-fluorophenyl)-6-oxo-2,3,5,6-tetrahydrofuro[3,2-c]pyridine-7-carboxamide] | – | 1 | 23.4 | 29.7 |
| COc1cc2c(Oc3ccc(NC(=O)c4c5c(cn(-c6ccc(F)cc6)c4=O)CCO5)cc3F)ccnc2cc1OCCN1CCC(C)(O)CC1 [Example 137, N-(3-Fluoro-4-((7-(2-(4-hydroxy-4-methylpiperidin-1-yl)ethoxy)-6-methoxyquinoline-4-yl)oxy)phenyl)-5-(4-fluorophenyl)-6-oxo-2,3,5,6-tetrahydrofuro[3,2-c]pyridine-7-carboxamide] | – | 2 | 18.2 | 22.4 |

— patent US20220235064A1 (WELLMARKER BIO CO., LTD., priority 2019, published 2022)
